Our source for the Potency values is ChEMBL document CHEMBL1122453, “Structure-activity relationships in the antiinflammatory steroids: a pattern-recognition approach” (1983).

The species entered for assay [1] is Homo sapiens. Nature of the assay: Potency relative to fluocinolone 16,17-acetonide in the human vasoconstictor test. It counts as functional.
The species entered for assay [2] is Rattus norvegicus. The assay can be described thus: Anti-inflammatory effect in rat granuloma assay, activity relative to hydrocortisone and hydrocortisone 21-acetate. It counts as functional.

Take `C[C@H]1C[C@@H]2[C@H]([C@@H](O)C[C@@]3(C)[C@H]2CC[C@]3(O)C(=O)CO)[C@@]2(C)C=CC(=O)C=C12` (stereo in doubt) [METHYLPREDNISOLONE]: the Potency in assay [1] amounted to 0.1; in assay [2] it was 5.

As for `C[C@]12CCC(=O)C=C1CC[C@@H]1[C@@H]2[C@@H](O)C[C@@]2(C)[C@H]1CC[C@]2(O)C(=O)CO` [HYDROCORTISONE], the Potency in assay [1] is recorded as below 1; in assay [2], 1.

As to `C[C@]12C=CC(=O)C=C1CC[C@H]1[C@@H]3C[C@@H](O)[C@](O)(C(=O)CO)[C@@]3(C)C[C@H](O)[C@@]12F` [TRIAMCINOLONE], the figures for the Potency in assay [1] and in assay [2] were 0.01 and 2.6, respectively.

With `CC(=O)OCC(=O)[C@@]1(O)CC[C@H]2[C@@H]3CCC4=CC(=O)CC[C@]4(C)[C@@]3(F)[C@@H](O)C[C@@]21C` [FLUDROCORTISONE ACETATE], the Potency in assay [1] amounted to 1; in assay [2], 7.3.

Consider `C[C@@H]1C[C@H]2[C@@H]3CCC4=CC(=O)C=C[C@]4(C)[C@@]3(F)[C@@H](O)C[C@]2(C)[C@@]1(O)C(=O)CO` [DEXAMETHASONE], for which the Potency in assay [1] turned out to be 1; in assay [2], 200.

In the case of `CC1(C)O[C@@H]2C[C@H]3[C@@H]4CCC5=CC(=O)C=C[C@]5(C)[C@@]4(F)[C@@H](O)C[C@]3(C)[C@]2(C(=O)CO)O1` [TRIAMCINOLONE ACETONIDE], the Potency in assay [1] is 100; in assay [2], 49.

As for `C[C@]12C=CC(=O)C=C1CC[C@@H]1[C@@H]2[C@@H](O)C[C@@]2(C)[C@H]1CC[C@]2(O)C(=O)CO` [PREDNISOLONE], the Potency came to 0.1 in assay [1] and 3 in assay [2].

`CC12CCC(=O)C=C1[C@@H](F)CC1C2C(O)CC2(C)C1C[C@@H](O)[C@]2(O)C(=O)CO` (some centres undefined) displayed a Potency in assay [2] of 5.

With `C[C@@H]1CC2C3CCC4=CC(=O)C=CC4(C)C3[C@@H](O)CC2(C)C1C(=O)CO` (some centres undefined), the Potency in assay [2] was found to be 3.

Turning to `C[C@@H]1CC2C3CCC4=CC(=O)C=CC4(C)[C@@]3(Cl)C(O)CC2(C)[C@@]1(O)C(=O)CO` (some centres undefined), the Potency in assay [2] stood at 60.

As to `CC(=O)OCC(=O)C1CCC2C3CCC4=CC(=O)[C@H](C)CC4(C)[C@@]3(F)C(O)CC12C` (some centres undefined), the Potency in assay [2] came out at 2.4.

Consider `C[C@@H]1CC2(C)C(=CC1=O)CCC1C2C(=O)CC2(C)C1CC[C@]2(O)C(=O)CO` (some centres undefined), for which, in assay [2], the Potency is below 0.07.

`CC12CCC(=O)C=C1[C@@H](F)CC1C3C[C@@H](O)[C@](O)(C(=O)CO)C3(C)CC(O)[C@@]12F` (some centres undefined): the Potency in assay [2] was found to be 15.

With `CC(=O)OCC(=O)[C@@]1(O)CCC2C3CCC4=CC(=O)[C@H](C)CC4(C)[C@@]3(F)C(O)CC21C` (some centres undefined), in assay [2], the Potency worked out at 9.

Take `CC12CCC(=O)C=C1[C@@H](Cl)CC1C3CC(O)[C@](O)(C(=O)CO)C3(C)CC(O)[C@@]12F` (some centres undefined): the Potency in assay [2] was determined as 50.

Take `CC(=O)OCC(=O)[C@@]1(O)CC[C@H]2[C@@H]3CCC4=CC(=O)CC[C@]4(C)[C@H]3C(=O)C[C@@]21C` [CORTISONE ACETATE]: in assay [2], the Potency is given as 0.3.

The compound `C[C@@H]1CC2C3CCC4=CC(=O)CCC4(C)C3C(O)CC2(C)[C@@]1(O)C(=O)CO` (some centres undefined) returned a Potency in assay [2] of 1.4.

`CC(=O)OCC(=O)[C@@]1(O)CCC2C3CCC4=CC(=O)CCC4(C)[C@@]3(Cl)C(O)CC21C` (some centres undefined): the Potency in assay [2] came to 3.5.

Regarding `CC(=O)OCC(=O)[C@@]1(O)CCC2C3C[C@H](Cl)C4=CC(=O)CCC4(C)C3C(O)CC21C` (some centres undefined), the Potency in assay [2] came out at 11.

In assay [2], `CC(=O)OCC(=O)[C@@]1(O)CCC2C3C[C@H](Cl)C4=CC(=O)CCC4(C)C3C(=O)CC21C` (some centres undefined) yielded a Potency of 1.

As to `CC(=O)OCC(=O)[C@@]1(O)CCC2C3C[C@H](Cl)C4=CC(=O)CCC4(C)[C@@]3(F)C(=O)CC21C` (some centres undefined), the Potency in assay [2] is reported as 8.

`CC(=O)OCC(=O)C1CCC2C3CCC4=CC(=O)[C@H](C)CC4(C)C3C(O)CC12C` (some centres undefined) had a Potency in assay [2] of 0.3.
